Data as given in US12692253B2, “Antimicrobial compounds and methods” (Curza Global, LLC, priority 2019, dated 2026).

Columns and labels:
[1] = molecular target: Rabbit Reticulocyte Lysate (eukaryotic protein synthesis); experiment: Rabbit reticulocyte lysate luciferase assay (inhibition of eukaryotic protein synthesis); assay type: biochemical; conditions: class by IC50 or % inhibition @ 1 μM, read-out: Rabbit reticulocyte IC50 (μM/% inhib.)
Procedure, shortened: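 In vitro translation of luciferase control RNA in nuclease-treated rabbit reticulocyte lysate with amino acid mixture, compounds in 2-fold serial dilution, 90 minutes at 30° C. Luminescence read after luciferase reagent; % inhibition relative to water no-inhibitor controls, with no-RNA background wells.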

[2] = system: E. coli S30 extract (bacterial protein synthesis); experiment: E. coli S30 extract coupled transcription-translation luciferase assay (inhibition of bacterial protein synthesis); assay type: biochemical; conditions: class by IC50 or % inhibition @ 1 μM, read-out: S30 IC50 (μM/% inhib.)
Procedure, shortened: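 Coupled transcription-translation in E. coli S30 circular-DNA extract expressing luciferase from pBESTluc, with 8-point 2-fold compound dilutions; 1 hour at 37 °C, stopped at 4 °C. Luminescence read; % inhibition versus no-inhibitor wells, no-DNA wells as background.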

A. baumannn (Ab) = experiment: Broth microdilution minimum inhibitory concentration (MIC), CLSI; assay type: cell-based; conditions: for MIC: Acinetobacter baumannii, read-out: Ab + bicarb MIC
Procedure, shortened: (§1)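 Bacteria grown at 35±2 °C to 0.5 McFarland turbidity were added at 5×10^4 CFU/well to triplicate two-fold compound series (8 dilutions). Media were cation-adjusted Mueller-Hinton broth alone or with sodium bicarbonate (6.25 or 25 mM final) or heat-inactivated human serum (0–50%), per modified CLSI method.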

P. aeruginosa (Pa) = experiment: as above; assay type: cell-based; conditions: growth medium supplemented with sodium bicarbonate; for MIC: Pseudomonas aeruginosa, read-out: Pa MIC + bicarb
Procedure, shortened: as §1

S. aureus (Sa) = experiment: as above; assay type: cell-based; conditions: growth medium supplemented with sodium bicarbonate; for MIC: Staphylococcus aureus, read-out: Sa + bicarb MIC
Procedure, shortened: as §1

E. faecalis (Ef) = experiment: as above; assay type: cell-based; conditions: growth medium supplemented with sodium bicarbonate; for MIC: Enterococcus faecalis, read-out: Ef + bicarb MIC
Procedure, shortened: as §1

E. coli (Ec) = experiment: as above; assay type: cell-based; conditions: growth medium supplemented with sodium bicarbonate; for MIC: Escherichia coli, read-out: E. coli + bicarb MIC
Procedure, shortened: as §1

SMILES	IC50 [1]	IC50 [2]	MIC (A. baumannn (Ab))	MIC (P. aeruginosa (Pa))	MIC (S. aureus (Sa))	Ef + bicarb MIC (E. faecalis (Ef))	MIC (E. coli (Ec))	MIC (E. faecalis (Ef))	Ab + bicarb MIC (A. baumannn (Ab); A. baumannii, growth medium supplemented with sodium bicarbonate)	Pa MIC + bicarb (P. aeruginosa (Pa))	Sa + bicarb MIC (S. aureus (Sa))	E. coli + bicarb MIC (E. coli (Ec))
CC(C)(N)C(=O)N1CCN(C(=O)Nc2ccn(-c3ccc(CCN4C5CCC4CC(N)C5)cc3)c(=O)n2)CC1 (stereo not drawn) [Compound 106]	≥ 1 µM	≥ 1 µM	> 32 µg/mL	> 32 µg/mL	< 8 µg/mL	++ (An MIC value (μg/mL) that is 8 μg/mL or greater and less than 32 μg/mL)	< 8 µg/mL					
CC(C)(N)C(=O)N1CCN(C(=O)Nc2ccn(-c3ccc(CCN4CC5(CCC5N)C4)cc3)c(=O)n2)CC1 (stereo not drawn) [Compound 107]	≥ 1 µM	≥ 1 µM	> 32 µg/mL	> 32 µg/mL	< 8 µg/mL		< 8 µg/mL	8 to 32 µg/mL				
CC(C)(N)C(=O)N1CCN(C(=O)Nc2ccn(-c3ccc(CCN4C5CCC4CC(N)C5)cc3)c(=O)n2)CC1 (stereo not drawn) [Compound 108]	≥ 1 µM	≥ 1 µM				+ (An MIC (μg/mL) value that is 32 μg/mL or greater)			+ (An MIC (μg/mL) value that is 32 μg/mL or greater)	+ (An MIC (μg/mL) value that is 32 μg/mL or greater)	+++ (An MIC value (μg/mL) that is less than 8 μg/mL)	+++ (An MIC value (μg/mL) that is less than 8 μg/mL)
CC(C)(N)C(=O)N1CCN(C(=O)Nc2ccn(-c3cccc(CCN4CC5(CC(N)C5)C4)c3)c(=O)n2)CC1 [Compound 109]	≥ 1 µM	< 0.5 µM	> 32 µg/mL	> 32 µg/mL	< 8 µg/mL		< 8 µg/mL	> 32 µg/mL				
CC(C)(N)C(=O)N1CCN(C(=O)Nc2ccn(-c3cccc(CCN4CCC5(CC4)CC(N)C5)c3)c(=O)n2)CC1 [Compound 110]	≥ 1 µM	0.5 to 1 µM	> 32 µg/mL	> 32 µg/mL	< 8 µg/mL		< 8 µg/mL	8 to 32 µg/mL				
CC(Cc1ccc(-n2ccc(NC(=O)N3CCN(C(=O)C(C)(C)N)CC3)nc2=O)cc1)N1CC2(CCC2N)C1 (stereo not drawn) [Compound 111]	≥ 1 µM	≥ 1 µM	> 32 µg/mL	> 32 µg/mL	< 8 µg/mL		< 8 µg/mL	8 to 32 µg/mL				
CC(Cc1ccc(-n2ccc(NC(=O)N3CCN(C(=O)C(C)(C)N)CC3)nc2=O)cc1)N1CC2(CC(N)C2)C1 (stereo not drawn) [Compound 112]	≥ 1 µM	0.5 to 1 µM	> 32 µg/mL	> 32 µg/mL	< 8 µg/mL		< 8 µg/mL	8 to 32 µg/mL				
CC(C)(N)C(=O)N1CCN(C(=O)Nc2ccn(-c3cccc(CCN4CC5CCC(C4)C5N)c3)c(=O)n2)CC1 (stereo not drawn) [Compound 113]	≥ 1 µM	≥ 1 µM	> 32 µg/mL	> 32 µg/mL	> 32 µg/mL		< 8 µg/mL	> 32 µg/mL				
CC(Cc1ccc(-n2ccc(NC(=O)N3CCN(C(=O)C(C)(C)N)CC3)nc2=O)cc1)N1CCC2(CC1)CC(N)C2 (stereo not drawn) [Compound 114]	≥ 1 µM	< 0.5 µM	8 to 32 µg/mL	8 to 32 µg/mL	< 8 µg/mL		< 8 µg/mL	< 8 µg/mL				
CC(Cc1ccc(-n2ccc(NC(=O)N3CCN(C(=O)[C@@](C)(N)CO)CC3)nc2=O)cc1)N1CCC2(CC1)CC(N)C2 (stereo partly drawn) [Compound 115]	≥ 1 µM	< 0.5 µM	> 32 µg/mL	> 32 µg/mL	< 8 µg/mL		< 8 µg/mL	< 8 µg/mL				
CC(C)(N)C(=O)N1CCN(C(=O)Nc2ccn(-c3ccc(CCN4C[C@@H]5[C@@H](CN)[C@@H]5C4)cc3)c(=O)n2)CC1 [Compound 116]	≥ 1 µM	< 0.5 µM	< 8 µg/mL	8 to 32 µg/mL	< 8 µg/mL		< 8 µg/mL	8 to 32 µg/mL				
CC(C)(N)C(=O)N1CCN(C(=O)Nc2ccn(-c3ccc(CCN4CC5CC5(CN)C4)cc3)c(=O)n2)CC1 (stereo not drawn) [Compound 117]	≥ 1 µM	< 0.5 µM	8 to 32 µg/mL	8 to 32 µg/mL	< 8 µg/mL		< 8 µg/mL	< 8 µg/mL				
C[C@@](N)(CO)C(=O)N1CCN(C(=O)Nc2ccn(-c3ccc(CCN4CC5CC5(CN)C4)cc3)c(=O)n2)CC1 (stereo partly drawn) [Compound 120]	≥ 1 µM	< 0.5 µM	> 32 µg/mL	8 to 32 µg/mL	< 8 µg/mL		< 8 µg/mL	8 to 32 µg/mL				
CC(CN1C[C@@H]2[C@@H](CN)[C@@H]2C1)c1ccc(-n2ccc(NC(=O)N3CCN(C(=O)C(C)(C)N)CC3)nc2=O)cc1 (stereo partly drawn) [Compound 121]	≥ 1 µM	0.5 to 1 µM	> 32 µg/mL	8 to 32 µg/mL	< 8 µg/mL		< 8 µg/mL	8 to 32 µg/mL				
CC(Cc1ccc(-n2ccc(NC(=O)N3CCN(C(=O)C(C)(C)N)CC3)nc2=O)cc1)N1C[C@@H]2[C@@H](CN)[C@@H]2C1 (stereo partly drawn) [Compound 122]	≥ 1 µM	< 0.5 µM	8 to 32 µg/mL	< 8 µg/mL	< 8 µg/mL		< 8 µg/mL	< 8 µg/mL				
CC(C)(N)C(=O)N1CCN(C(=O)Nc2ccn(-c3ccc(CCN4CC5CC5(CN)C4)c(F)c3)c(=O)n2)CC1 (stereo not drawn) [Compound 123]	≥ 1 µM	< 0.5 µM	> 32 µg/mL	> 32 µg/mL	< 8 µg/mL		< 8 µg/mL	< 8 µg/mL				
CC(Cc1ccc(-n2ccc(NC(=O)N3CCN(C(=O)C(C)(C)N)C[C@H]3C)nc2=O)cc1)N1C[C@@H]2[C@@H](CN)[C@@H]2C1 (stereo partly drawn) [Compound 124]	≥ 1 µM	< 0.5 µM	> 32 µg/mL	8 to 32 µg/mL	< 8 µg/mL		< 8 µg/mL	< 8 µg/mL				
CC(Cc1ccc(-n2ccc(NC(=O)N3CCN(C(=O)[C@@](C)(N)CO)CC3)nc2=O)cc1)N1C[C@@H]2[C@@H](CN)[C@@H]2C1 (stereo partly drawn) [Compound 125]	≥ 1 µM	< 0.5 µM	> 32 µg/mL	8 to 32 µg/mL	< 8 µg/mL		< 8 µg/mL	< 8 µg/mL				
Cc1cc(-n2ccc(NC(=O)N3CCN(C(=O)C(C)(C)N)CC3)nc2=O)ccc1CCN1C[C@@H]2[C@@H](CN)[C@@H]2C1 [Compound 126]	≥ 1 µM	< 0.5 µM	8 to 32 µg/mL	8 to 32 µg/mL	< 8 µg/mL		< 8 µg/mL	8 to 32 µg/mL				
CC(C)(N)C(=O)N1CCN(C(=O)Nc2ccn(-c3ccc(CCN4C[C@@H]5[C@@H](CN)[C@@H]5C4)c(F)c3)c(=O)n2)CC1 [Compound 127]	≥ 1 µM	< 0.5 µM	> 32 µg/mL	8 to 32 µg/mL	8 to 32 µg/mL		< 8 µg/mL	8 to 32 µg/mL				
Cc1cc(-n2ccc(NC(=O)N3CCN(C(=O)[C@@](C)(N)CO)CC3)nc2=O)ccc1CCN1CC2CC2(CN)C1 (stereo partly drawn) [Compound 128]	≥ 1 µM	< 0.5 µM	> 32 µg/mL	> 32 µg/mL	< 8 µg/mL		< 8 µg/mL	8 to 32 µg/mL				
